# Like-named read-outs stand apart in the source and are kept apart here.
# Tests used:
# [1] = tested on: HL-60(TB); settings: for Mean Optical Densities / Percent Growth: HL-60(TB)
# [2] = tested on: MOLT-4
# [3] = tested on: EKVX; settings: for Mean Optical Densities / Percent Growth: EKVX
# [4] = tested on: HOP-92
# [5] = tested on: COLO 205
# [6] = tested on: HCT-15
# [7] = tested on: SNB-75
# [8] = tested on: SK-OV-3
# [9] = tested on: BT-549
# [10] = tested on: SR; experiment: cells; settings: Homo sapiens
# [11] = tested on: HOP-62; experiment: cells; settings: Homo sapiens
# [12] = tested on: HOP-92; experiment: cells; settings: Homo sapiens
# [13] = tested on: HCT-15; experiment: cells; settings: Homo sapiens
# [14] = tested on: HT29; experiment: cells; settings: Homo sapiens
# [15] = tested on: SF-295; experiment: cells; settings: Homo sapiens
# [16] = tested on: SF-539; experiment: cells; settings: Homo sapiens
# [17] = tested on: SK-MEL-5; experiment: cells; settings: Homo sapiens
# [18] = tested on: IGROV1; experiment: cells; settings: Homo sapiens
# [19] = tested on: OVCAR-5; experiment: cells; settings: Homo sapiens
# [20] = tested on: RXF 393; experiment: cells; settings: Homo sapiens
# [21] = tested on: T-47D; experiment: cells; settings: Homo sapiens, T47D
# [22] = MOLT-4, log10 concentration −4.0
# [23] = MOLT-4, log10 concentration −6.0
# [24] = MOLT-4, log10 concentration −7.0
# [25] = MOLT-4, log10 concentration −8.0
# [26] = HOP-92, log10 concentration −4.0
# [27] = HOP-92, log10 concentration −5.0
# [28] = HOP-92, log10 concentration −6.0
# [29] = HOP-92, log10 concentration −7.0
# [30] = HOP-92, log10 concentration −8.0
# [31] = COLO 205, log10 concentration −4.0
# [32] = COLO 205, log10 concentration −5.0
# [33] = COLO 205, log10 concentration −6.0
# [34] = COLO 205, log10 concentration −7.0
# [35] = COLO 205, log10 concentration −8.0
# [36] = HCT-15, log10 concentration −4.0
# [37] = HCT-15, log10 concentration −5.0
# [38] = HCT-15, log10 concentration −6.0
# [39] = HCT-15, log10 concentration −7.0
# [40] = HCT-15, log10 concentration −8.0
# [41] = SNB-75, log10 concentration −4.0
# [42] = SNB-75, log10 concentration −5.0
# [43] = SNB-75, log10 concentration −6.0
# [44] = SNB-75, log10 concentration −7.0
# [45] = SNB-75, log10 concentration −8.0
# [46] = SK-OV-3, log10 concentration −4.0
# [47] = SK-OV-3, log10 concentration −5.0
# [48] = SK-OV-3, log10 concentration −6.0
# [49] = SK-OV-3, log10 concentration −7.0
# [50] = SK-OV-3, log10 concentration −8.0
# [51] = BT-549, log10 concentration −4.0
# [52] = BT-549, log10 concentration −5.0
# [53] = BT-549, log10 concentration −6.0
# [54] = BT-549, log10 concentration −7.0
# [55] = BT-549, log10 concentration −8.0
smiles,measurement,setting,value
"CC(C)c1cnn2c(NCc3ccccc3)cc(N[C@@H](CO)[C@H](O)CO)nc12 [ICEC0318, (3S)-3-(7-(Benzylamino)-3-isopropylpyrazolo[1,5-a]pyrimidin-5-ylamino)butane-1,2,4-triol]",TGI,[1]; HL-60(TB) (Leukemia),6.07E−7
same,Mean Optical Densities,[1]; log10 concentration −4.0,0.495
same,Percent Growth,[1]; log10 concentration −4.0,−2%
same,Mean Optical Densities,[1]; log10 concentration −5.0,0.484
same,Percent Growth,[1]; log10 concentration −5.0,−4%
same,Mean Optical Densities,[1]; log10 concentration −6.0,0.407
same,Percent Growth,[1]; log10 concentration −6.0,−19%
same,Mean Optical Densities,[1]; log10 concentration −7.0,0.932
same,Percent Growth,[1]; log10 concentration −7.0,69%
same,Mean Optical Densities,[1]; log10 concentration −8.0,1.084
same,Percent Growth,[1]; log10 concentration −8.0,94%
same,TGI,[2]; MOLT-4 (Leukemia),>1.00E−4
same,Mean Optical Densities,[2]; [22],0.449
same,Percent Growth,[2]; [22],15%
same,Mean Optical Densities,"[2]; MOLT-4, log10 concentration −5.0",0.329
same,Mean Optical Densities,[2]; [23],0.368
same,Percent Growth,[2]; [23],5%
same,Mean Optical Densities,[2]; [24],0.987
same,Percent Growth,[2]; [24],82%
same,Mean Optical Densities,[2]; [25],1.072
same,Percent Growth,[2]; [25],92%
same,TGI,[3]; EKVX (Non-Small Cell Lung Cancer),>1.00E−4
same,Mean Optical Densities,[3]; log10 concentration −4.0,0.740
same,Percent Growth,[3]; log10 concentration −4.0,4%
same,Mean Optical Densities,[3]; log10 concentration −5.0,0.817
same,Percent Growth,[3]; log10 concentration −5.0,9%
same,Mean Optical Densities,[3]; log10 concentration −6.0,0.841
same,Percent Growth,[3]; log10 concentration −6.0,11%
same,Mean Optical Densities,[3]; log10 concentration −7.0,1.830
same,Percent Growth,[3]; log10 concentration −7.0,83%
same,Mean Optical Densities,[3]; log10 concentration −8.0,2.035
same,Percent Growth,[3]; log10 concentration −8.0,98%
same,TGI,[4]; HOP-92 (Non-Small Cell Lung Cancer),>1.00E−4
same,Mean Optical Densities,[4]; [26],0.594
same,Percent Growth,[4]; [26],12%
same,Mean Optical Densities,[4]; [27],0.612
same,Percent Growth,[4]; [27],16%
same,Mean Optical Densities,[4]; [28],0.645
same,Percent Growth,[4]; [28],22%
same,Mean Optical Densities,[4]; [29],0.981
same,Percent Growth,[4]; [29],86%
same,Mean Optical Densities,[4]; [30],1.050
same,Percent Growth,[4]; [30],99%
same,TGI,[5]; COLO 205 (Colon Cancer),3.82E−7
same,Mean Optical Densities,[5]; [31],0.030
same,Percent Growth,[5]; [31],−77%
same,Mean Optical Densities,[5]; [32],0.050
same,Percent Growth,[5]; [32],−62%
same,Mean Optical Densities,[5]; [33],0.065
same,Percent Growth,[5]; [33],−50%
same,Mean Optical Densities,[5]; [34],0.372
same,Percent Growth,[5]; [34],70%
same,Mean Optical Densities,[5]; [35],0.499
same,Percent Growth,[5]; [35],107%
same,TGI,[6]; HCT-15 (Colon Cancer),>1.00E−4
same,Mean Optical Densities,[6]; [36],0.268
same,Percent Growth,[6]; [36],2%
same,Mean Optical Densities,[6]; [37],0.286
same,Percent Growth,[6]; [37],3%
same,Mean Optical Densities,[6]; [38],0.481
same,Percent Growth,[6]; [38],21%
same,Mean Optical Densities,[6]; [39],1.262
same,Percent Growth,[6]; [39],90%
same,Mean Optical Densities,[6]; [40],1.354
same,Percent Growth,[6]; [40],98%
same,TGI,[7]; SNB-75 (CNS Cancer),4.82E−7
same,Mean Optical Densities,[7]; [41],0.072
same,Percent Growth,[7]; [41],−83%
same,Mean Optical Densities,[7]; [42],0.162
same,Percent Growth,[7]; [42],−62%
same,Mean Optical Densities,[7]; [43],0.226
same,Percent Growth,[7]; [43],−47%
same,Mean Optical Densities,[7]; [44],0.911
same,Percent Growth,[7]; [44],101%
same,Mean Optical Densities,[7]; [45],0.848
same,Percent Growth,[7]; [45],88%
same,TGI,[8]; SK-OV-3 (Ovarian Cancer),>1.00E−4
same,Mean Optical Densities,[8]; [46],0.799
same,Percent Growth,[8]; [46],9%
same,Mean Optical Densities,[8]; [47],0.860
same,Percent Growth,[8]; [47],17%
same,Mean Optical Densities,[8]; [48],0.903
same,Percent Growth,[8]; [48],23%
same,Mean Optical Densities,[8]; [49],1.701
same,Percent Growth,[8]; [49],132%
same,Mean Optical Densities,[8]; [50],1.504
same,Percent Growth,[8]; [50],105%
same,TGI,[9]; BT-549 (Breast Cancer),8.82E−7
same,Mean Optical Densities,[9]; [51],0.803
same,Percent Growth,[9]; [51],−10%
same,Mean Optical Densities,[9]; [52],0.805
same,Percent Growth,[9]; [52],−9%
same,Mean Optical Densities,[9]; [53],0.843
same,Percent Growth,[9]; [53],−5%
same,Mean Optical Densities,[9]; [54],1.769
same,Percent Growth,[9]; [54],88%
same,Mean Optical Densities,[9]; [55],1.968
same,Percent Growth,[9]; [55],108%
same,GI50,[10],0.0758 µM
same,CC50,[10]; read-out: LC50,> 100 µM
same,GI50,[11]; HOP-62,0.243 µM
same,CC50,"[11]; HOP-62, read-out: LC50",> 100 µM
same,GI50,[12]; HOP-92,0.369 µM
same,CC50,"[12]; HOP-92, read-out: LC50",> 100 µM
same,GI50,[13]; HCT-15,0.377 µM
same,CC50,"[13]; HCT-15, read-out: LC50",> 100 µM
same,GI50,[14]; HT-29,0.336 µM
same,CC50,"[14]; HT-29, read-out: LC50",> 100 µM
same,GI50,[15]; SF-295,0.266 µM
same,CC50,"[15]; SF-295, read-out: LC50",> 100 µM
same,GI50,[16]; SF-539,0.199 µM
same,CC50,"[16]; SF-539, read-out: LC50",6.85 µM
same,GI50,[17]; SK-MEL-5,0.192 µM
same,CC50,"[17]; SK-MEL-5, read-out: LC50",5.98 µM
same,GI50,[18]; IGROV-1,0.21 µM
same,CC50,"[18]; IGROV-1, read-out: LC50",> 100 µM
same,GI50,[19]; OVCAR-5,0.305 µM
same,CC50,"[19]; OVCAR-5, read-out: LC50",> 100 µM
same,GI50,[20]; RXF 393,0.213 µM
same,CC50,"[20]; RXF 393, read-out: LC50",54.6 µM
same,GI50,[21],0.305 µM
same,CC50,[21]; read-out: LC50,> 100 µM

# Reference: patent US8067424B2, “Selective inhibitors for cyclin-dependent kinases” (Emory University, priority 2007, dated 2011)
